Source: patent US20190151304A1, “METHODS AND PHARMACEUTICAL COMPOSITIONS FOR THE TREATMENT OF AUTOIMMUNE INFLAMMATORY” (INSERM (INSTITUT NATIONAL DE LA SANTÉ ET DE LA RECHERCJAE …, priority 2016, published 2019)
No end group written: not given here.

What was measured:
[1] = test system: cytokines secretion in colon extracts; assay: Cytokine assays in colon extracts of DSS-induced colitis mice; assay type: in vivo; conditions: OxA treatment
Description: FIG. 3: OXA effects on cytokines secretion in DSS-induced colitis mice. Right, Colons of DSS untreated mice (white), DSS treated mice (gray) and DSS treated mice associated to OxA treatment (black) were resected after animal sacrifice. Then, protein extraction was performed by tissue disruption. Cytokines were determined using Cytokine CBA kits (see Material and Methods). Left, after colon resection, RNA were extracted from colonic tissue and qPCR was performed using specific oligonucleotides for IL8 homolog and IL1B.
These observations are confirmed by histologic aspect of colon epithelium (histologic scoring by a GI pathologist). Thus, OxA has probably an anti-inflammatory effect on DSS-induced colitis. To confirm this hypothesis, we have investigated the anti-inflammatory effect of OxA treatment on cytokines secretion in colon extracts from DSS-treated mice. […] In contrast, OxA has no effect on INFγ, IL10, and IL12 cytokine secretion in colon extracts (FIG. 3).
Cytokine assays: Mice were sacrificed and colons were resected. Proteins were extracted from colon by tissue disruption in PBS using Tissue Lyser (Qiagen, Courtaboeuf, France). Various cytokines (see FIG. 3) were determined using Cytokine CBA kits (BD Sciences, Le Pont de Claix, France).

[2] = test system: cerulein-induced chronic pancreatitis mice; assay: Chronic pancreatitis mice model induced by cerulein; assay type: in vivo
Excerpt: FIG. 9. Pancreatic lymphocyte infiltration determined by immunostaining of CD45+ cells. Values were expressed as percentage of stained surface. **, p<0.01
FIG. 10: Amylase activity in blood samples of control mice, cerulein-induced mice and cerulein-induced mice treated with OxA. *, p<0.05; ***, p<0.001 and NS, non significant.
We have investigated the effect of orexin A (OxA) on chronic pancreatitis mice model induced by supraphysiologic doses of cerulein (3 intraperitoneal injections/week at 100 μg/kg). […] In mice treated by OxA (2 intraperitoneal injections/week at 1.40 μmol/Kg) the lesions induced by cerulein improved. OxA-treated mice had lower number of acino-ductal metaplasia.

Substance: OxA: neuropeptide, endogenous ligand of OX1R and OX2R, with two disulphide bridges (QPLPDCCRQKTCSCRLYELLHGAGNHAAGILTL; disulfide (positions not given here); ends not checked; also: two disulphide bridges, pairing not given here; UniProt O43612 34-66, looked up)
- IL6 secretion in colon extracts [1]: reduces
- IL10 secretion in colon extracts [1]: no effect
- IL12 secretion in colon extracts [1]: no effect
- INFγ secretion in colon extracts [1]: no effect
- TNFα secretion in colon extracts [1]: reduces
- IL1B in colon extracts ([1]; qPCR per FIG. 3): reduces
- IL8 homolog in colon extracts ([1]; qPCR per FIG. 3): reduces
- Pancreatic lymphocyte infiltration (anti-CD45 immunohistochemistry) ([2]; OxA 1.40 μmol/Kg, quantitative imaging analysis, 18% in OxA-untreated mice): 6 % of the pancreatic surface
- Pancreatic fibrosis on Picrosirius staining ([2]; OxA 1.40 μmol/Kg, quantitative imaging analysis, 40% in OxA-untreated mice): 12 % of the pancreatic surface
- Number of acino-ductal metaplasia ([2]; OxA 2 intraperitoneal injections/week at 1.40 μmol/Kg): lower number
- Lesions induced by cerulein (histological analysis of the pancreas) ([2]; OxA 2 intraperitoneal injections/week at 1.40 μmol/Kg, 3 weeks of cerulein): improved
- Amylase activity in blood samples ([2]; cerulein-induced mice treated with OxA): significantly reduced
